These results are taken from US12263139B2, “Use of cannabidiol in the treatment of tuberous sclerosis complex” (Jazz Pharmaceuticals Research UK Limited, priority 2017, dated 2025).

For data set [1] the following is noted: stomatitis, infections, rash, fatigue, diarrhoea, oedema, abdominal pain, nausea, fever, asthenia, cough, headache, decreased appetite; cited from earlier work.
A further data set concerns Miapaca. Nature of the data set: Drug combination assay (MTT, CalcuSyn) of Rad001 and CBD in Miapaca. It counts as cell-based, Homo sapiens. The procedure:
For the study of the synergism between Rad001 and CBD on pancreatic cell lines Miapaca was tested, the cells were seeded in 96-multiwell plates at the density of 3.8 10^3 cells/well. After 24 hr incubation at 37° C., the cells were treated with different concentrations of Rad001 and CBD. Different molar ratios between two drugs in different sequences of administration were tested, (Rad001 for 48 h and CBD for 72 h or Rad001 for 72 h and CBD for 48 h and in co-administration for 72 h.
The proliferative response was estimated by colorimetric 3-(4,5 di-methylthiazol-2-yl)-2,5-diphenyltetrazolium bromide (MIT) test. MTT conversion to formazan by metabolically viable cells was monitored by spectrophotometer at an optical density of 570 nm. Each data point represents the average of three separate experiments with each experiment containing four wells. Drug combination studies were based on concentration-effect curves generated as a plot of the fraction of unaffected (surviving) cells versus drug concentration after treatment.
To explore the relative contribution of each agent to the synergism equi-active doses of […] were tested (IC50). Assessment of synergy was performed quantitating drug interaction by Calcusyn computer program (Biosoft, Ferguson, MO). Combination index (CI) values of <1, 1, and >1 indicate synergy, additivity and antagonism, respectively.
Dose reduction index (DRI) representing the measure of how much the dose of each drug in a combination may be reduced at a given effect level compared with the doses of each drug alone.
The effects of the pharmacological combination between CBD and RAD001 on the proliferation MIAPACA cell lines, using MTT assay were studied. The data obtained were processed with dedicated program, CalcuSyn (Chou and Talalay, Biosoft, Oregon, USA), which measures synergism.
The specific contribution of CBD and Rad001 on the cytotoxic effect of the combination of drugs was analyzed by calculating the potentiation factor (PF) defined as the ratio of the IC50 of either CBD or Rad001 alone to the IC50 of CBD and Rad001 in combination. A higher PF indicates a greater cytotoxicity.

For the molecule `CO[C@H]1C[C@@H]2CC[C@@H](C)[C@@](O)(O2)C(=O)C(=O)N2CCCC[C@H]2C(=O)O[C@H]([C@H](C)C[C@@H]2CC[C@@H](OCCO)[C@H](OC)C2)CC(=O)[C@H](C)/C=C(\C)[C@@H](O)[C@@H](OC)C(=O)[C@H](C)C[C@H](C)/C=C/C=C/C=C/1C` [Rad001, Everolimus, reference compound], the “incidence of most common adverse reactions” value in data set [1] is at least 30%. The IC50 in the data set with Miapaca (Homo sapiens, MIA PaCa-2, Miapaca, 50% effect level, read-out: Dose of drug alone) was 2600 nM. The DRI50 entry with Miapaca (Miapaca, Rad/CBD combination, dose reduction index) was “Rad 2.1”. Further, the “potentiation factor (PF)” value with Miapaca (ratio of IC50 alone to IC50 of CBD and Rad001 in combination) is given as 4.
